Results published in article PMC9564936 (Proceedings of the National Academy of Sciences of the …, 2022).
pKd: −log10 of the molar value.

Assays:
[1] = target: EF-P of A. albensis
[2] = target: T1, EF-P (A1S_2419) (Acinetobacter baumannii, UniProt A3M7E3); assay: isothermal titration calorimetry; format: binding
T1 sequence (A3M7E3 1-189): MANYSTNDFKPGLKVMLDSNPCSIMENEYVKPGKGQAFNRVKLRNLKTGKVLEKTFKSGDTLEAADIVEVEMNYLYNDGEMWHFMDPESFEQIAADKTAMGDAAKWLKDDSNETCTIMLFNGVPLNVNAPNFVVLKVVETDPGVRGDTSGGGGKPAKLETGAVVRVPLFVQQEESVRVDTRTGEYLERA

[3] = target: T1, EF-P (A1S_2419); assay: differential scanning fluorimetry; format: binding; conditions: 500 µM c-di-GMP

pKd [1]: 4.97
pKd [2]: 5.23
Compound: Nc1nc2c(ncn2[C@@H]2O[C@@H]3COP(=O)(O)O[C@H]4[C@@H](O)[C@H](n5cnc6c(=O)[nH]c(N)nc65)O[C@@H]4COP(=O)(O)O[C@H]3[C@H]2O)c(=O)[nH]1 [c-di-GMP, bis-(3′-5′)-cyclic guanosine monophosphate]
thermal shift [3]: The DSF assay showed a marked shift in the melting curve of EF-P
